The term melting point denotes the temperature, or range, at which the solid turns liquid.

SMILES strings stand for the structures.

Results on six molecules are retold here after patent publication US6441180B1, “Tetrazolyl-phenyl actamide glucokinase activators” (Hoffmann-La Roche Inc., priority 2000, dated 2002).

With `Cc1nnnn1-c1ccc(C(CC2CCCC2)C(=O)Nc2ccc(Br)cn2)cc1F` (stereo not drawn) [Example 2, N-(5-Bromo-pyridin-2-yl)-3-cyclopentyl-2-[3-fluoro-4-(5-methyl-tetrazol-1-yl)-phenyl]-propionamide], the melting point was in the range of 73 to 78 °C.
In the case of `Cc1nnnn1-c1ccc(C(CC2CCCC2)C(=O)Nc2nccs2)cc1Cl` (stereo not drawn) [Example 3, 2-[3-Chloro-4-(5-methyl-tetrazol-1-yl)-phenyl]-3-cyclopentyl-N-thiazol-2-yl-propionamide], the melting point lay within 190 to 193 °C.
To `Cc1nnnn1-c1cc(C(CC2CCCC2)C(=O)Nc2nccs2)ccc1S(C)(=O)=O` (stereo not drawn) [Example 9, 3-Cyclopentyl-2-[4-methanesulfonyl-3-(5-methyl-tetrazol-1-yl)-phenyl]-N-thiazol-2-yl-propionamide] belongs 148 to 154 °C; to `CNC(=O)NC(=O)C(CC1CCCC1)c1ccc(-n2nnnc2C)c(Cl)c1` (stereo not drawn) [Example 11, 1-{2-[3-Chloro-4-(5-methyl-tetrazol-1-yl)-phenyl]-3-cyclopentyl-propionyl}-3-methyl-urea], 185 to 186 °C.
To `Cc1nnnn1-c1ccc(/C(=C\C2CCCC2)C(=O)Nc2nccs2)cc1F` [Example 12, (E)-3-Cyclopentyl-2-[3-fluoro-4-(5-methyl-tetrazol-1-yl)-phenyl]-N-thiazol-2-yl-acrlamide] belongs 158 to 162 °C.
As for `CNC(=O)NC(=O)/C(=C/C1CCCC1)c1ccc(-n2nnnc2C)c(F)c1` [Example 22, (E)-1-{3-Cyclopentyl-2-[3-fluoro-4-(5-methyl-tetrazol-1-yl)-phenyl]-acryloyl}-3-methyl-urea], the melting point was in the range of 186 to 192 °C.
